Results taken from patent US7687079B2, “Methods of treating ileus” (priority 2002, dated 2010).
“Also recorded” adds a separate entry of the source.

What was measured:
[1] = tested on: mice subjected to surgical manipulation of the small intestine; assay: intestinal transit of fluorescein-labeled dextran after intestinal manipulation (IM); format: in vivo, mouse
Text: Surgical Manipulation. Mice were anesthetized with inhaled isoflurane and the abdomen opened by midline laparotomy. The small intestine was eventrated and gently compressed along its entire length using moistened sterile cotton applicators. This procedure is designed to simulate “running” of the bowel commonly performed during abdominal surgery in the clinical setting. The bowel was repositioned in the abdominal cavity and the incision closed by two layers of continuous sutures. The duration of the procedure was approximately 15 minutes and the animals moved freely about their cage within 20 minutes of withdrawal of anesthetic.
CO Inhalation Treatment. Mice housed in cages were placed in plexiglass chambers that were continuously ventilated with air or with air containing CO (250 ppm). […]
Mice were anesthetized and killed by exsanguination at the end of the 24-hour chamber treatment with CO or room air. In vitro circular muscle mechanical activity was measured as previously described in Eskandari et al. (Am. J. Physiol. 273:G727-G734 (1997)). […] Contractile activity was calculated by integrating the area under the trace. […] Intestinal transit was measured in controls and manipulated animals 24 hours postoperatively by evaluating the intestinal distribution of a non-absorbable fluorescein-labeled dextran (MW 70,000). […]

[2] = tested on: rats that underwent small bowel transplantation; assay: intestinal transit of orally fed fluorescein-labeled dextran after SITx; format: in vivo, rat; details: for distribution of fluorescent label along the gastrointestinal tract: 2 hours after oral feeding
Procedure: To determine whether CO is protective against ileus associated with small bowel transplantation, orthotopic SITx was performed in syngenic Lewis rats. SITx with caval drainage was performed using a previously described procedure. […] The graft was perfused via the aortic segment with 5 ml chilled Ringer's lactate solution, and the intestinal lumen was irrigated with 20 ml of cold saline solution containing 0.5% neomycin-sulfate (Sigma, St. Louis, Mo.). End-to-side anastomoses between the graft aorta and the recipient infrarenal aorta, and between the graft portal vein and recipient vena cava, were performed with 10-0 Novafil™ suture. The cold ischemic time was 1 hour. The entire recipient intestine was removed and the enteric continuity was restored by proximal and distal end-to-end intestinal anastomoses. Recipient animals were given 20 mg/day prophylactic cefamandole nafate for 3 postoperative days. Transplanted recipients were given water 3 hours after surgery, and were fed 24 hours after surgery.
Four groups of animals were examined in this study, two of which received a SITx. Group 1 consisted of unoperated normal rats. Group 2 animals were exposed to CO with no surgery. In Group 3, syngeneic SITx were performed and the recipients kept in room air. Group 4 consisted of SITx recipients that were placed in the CO chamber for 1 hour before surgery and then re-exposed to CO immediately following surgery until sacrificed. In both Groups 3 and 4, normal LEW rats served as donors.
The animals were exposed to CO at a concentration of 250 ppm. Briefly, 1% CO in air was mixed with air (21% oxygen) in a stainless steel mixing cylinder and then directed into a 3.70 ft^3 glass exposure chamber at a flow rate of 12 L/min. A CO analyzer (Interscan, Chatsworth, Calif.) was used to measure CO levels continuously in the chamber. CO concentrations were maintained at 250 ppm at all times. The animals were supplied food and water during the exposures.
Intestinal transit was measured in controls and manipulated animals 48 hours postoperatively by evaluating the intestinal distribution of fluorescein-labeled dextran (Molecular Probes). Animals were lightly sedated with inhaled isofluran and fed orally with labeled dextran (200 μl of 6 mg/ml in saline). Two hours after administration, the animal was sacrificed and the entire bowel from stomach to distal colon was collected. […] After pelleting the intestinal tissue and chyme, aliquots of the supernatant were read in duplicate on a plate reader (CytoFluor II; excitation wavelength 530 nm and emission 590 nm) for quantification of the fluorescent signal in each bowel segment. […] Intestinal transit was determined for statistical analysis by calculating the geometric center (GC).

## [C-]#[O+] [CO, carbon monoxide]
[1]; IM + CO 250 ppm vs IM, 24 hours postoperatively
  intestinal transit (GC, distribution of labeled dextran): significantly improved; also recorded: more distal distribution; also recorded: significant increase
[1]; unoperated mice, CO 250 ppm alone
  intestinal transit: slight insignificant shift
[2]; SITx + CO, Table 2
  intestinal transit: normal
[2]; SITx rats, inhaled CO 250 ppm, 48 hours postoperatively
  intestinal transit (Geometric Center): significantly improved
[2]; transplanted animals treated with CO
  distribution of fluorescent label along the gastrointestinal tract: small bowel segments 6, 7 and 8
[2]; unoperated control rats treated with CO
  distribution of fluorescent label along the gastrointestinal tract: small bowel segments 9 and 10, and in the cecum
